{
  "source": "patent US9181235B2",
  "about": "“Substituted pyridines for modulating the WNT signaling pathway” (NOVARTIS AG, priority 2010, dated 2015)",
  "data": [
    {"tested_on": "Wnt signaling", "test": "Wnt-Luc reporter assay for pathway inhibition of Wnt signaling", "type": "cell-based, mouse (TM3 Wnt-Luc) or human (293 Wnt-Luc); not stated which", "conditions": "Wnt-Luc reporter cells co-cultured with L-cell Wnt3a cells, 24 hours, luciferase signal reduced by 50%", "method": "This example provides a method that is useful for evaluating test compounds for inhibition of Wnt signaling.\nMouse leydig cell TM3 cells (obtained from American Type Culture Collection, ATCC, Manassas, Va.) are cultured in 1:1 mixture of Ham's F12 medium and Dulbecco's modified Eagle's medium (Gibco/Invitrogen, Carlsbad, Calif.) supplemented with 2.5% FBS (Gibco/Invitrogen, Carlsbad, Calif.) and 5% horse serum (Gibco/Invitrogen, Carlsbad, Calif.), 50 unit/mL penicillin and 50 μg/mL of streptomycin (Gibco/Invitrogen, Carlsbad, Calif.) at 37° C. with 5% CO2 in air atmosphere. TM3 cells in a 10 cm dish are co-transfected with 8 μg of STF-reporter plasmid containing a luciferase gene driven by Wnt-responsive elements and 2 μg of pcDNA3.1-Neo (Gibco/Invitrogen, Carlsbad, Calif.) with 30 μL of FuGENE6 (Roche Diagnostics, Indianapolis, Ind.) following the manufacturer's protocol. Stable cell lines (TM3 Wnt-Luc) were selected with 400 μg/mL of G418 (Gibco/Invitrogen, Carlsbad, Calif.). The TM3 Wnt-Luc cells and L-cell Wnt3a cells (obtained from American Type Culture Collection, ATCC, Manassas, Va.; cultured in Dulbecco's modified Eagle's medium (Gibco/Invitrogen, Carlsbad, Calif.) supplemented with 10% FBS (Gibco/Invitrogen, Carlsbad, Calif.) and 50 unit/mL penicillin and 50 μg/mL of streptomycin (Gibco/Invitrogen, Carlsbad, Calif.) at 37° C. with 5% CO2 in air atmosphere) are trypsinized and co-cultured into a 384-well plate with DMEM medium supplemented with 2% FBS, and treated with different concentrations of a compound of the invention. After 24 hours, the firefly luciferase activities are assayed with the Bright-Glo™ Luciferase Assay System (Promega, Madison, Wis.). The IC50 is measured when the effect of the compound reduces the luminescence signal by 50%.\nThis example provides another method that is useful for evaluating test compounds for inhibition of Wnt signaling.\nHuman embryonic kidney 293 cells (obtained from American Type Culture Collection, ATCC, Manassas, Va.) are cultured in DMEM medium (Gibco/Invitrogen, Carlsbad, Calif.) supplemented with 10% FBS (Gibco/Invitrogen, Carlsbad, Calif.), 50 unit/mL penicillin and 50 μg/mL of streptomycin (Gibco/Invitrogen, Carlsbad, Calif.) at 37° C. with 5% CO2 in air atmosphere. 293 cells in a 10 cm dish are co-transfected with 8 μg of STF-reporter plasmid containing a luciferase gene driven by Wnt-responsive elements and 2 μg of pcDNA3.1-Neo (Gibco/Invitrogen, Carlsbad, Calif.) with 30 μL of FuGENE6 (Roche Diagnostics, Indianapolis, Ind.) following the manufacturer's protocol. Stable cell lines (293 Wnt-Luc) were selected with 400 μg/mL of G418 (Gibco/Invitrogen, Carlsbad, Calif.). The 293 Wnt-Luc cells and L-cell Wnt3a cells (obtained from American Type Culture Collection, ATCC, Manassas, Va.) are trypsinized and co-cultured into a 384-well plate with DMEM medium supplemented with 2% FBS, and treated with different concentrations of a compound of the invention. After 24 hours, the firefly luciferase activities are assayed with the Bright-Glo™ Luciferase Assay System (Promega, Madison, Wis.). The IC50 is measured when the effect of the compound reduces the luminescence signal by 50%.", "units": {"IC50": "nM"}, "values": [
      {"smiles": "Cc1c(F)cccc1-c1ccc(C(=O)NCc2ccc(-c3ccnc(C(F)(F)F)c3)nc2)nc1", "note": "[compound 64, 5-(3-fluoro-2-methylphenyl)-N-({6-[2-(trifluoromethyl)pyridin-4-yl]pyridin-3-yl}methyl)pyridine-2-carboxamide]", "IC50": 11},
      {"smiles": "Cc1ccc(F)cc1-c1ccc(C(=O)NCc2ccc(-c3ccnc(C(F)(F)F)c3)nc2)nc1", "note": "[compound 65, 5-(5-fluoro-2-methylphenyl)-N-({6-[2-(trifluoromethyl)pyridin-4-yl]pyridin-3-yl}methyl)pyridine-2-carboxamide]", "IC50": 5.8},
      {"smiles": "Cc1cc(CNC(=O)c2ccc(-c3cnccn3)cn2)cnc1-c1cc[nH]c(=O)c1", "note": "[compound 66, N-((5-Methyl-6-(2-oxo-1,2-dihydropyridin-4-yl)pyridin-3-yl)methyl)-5-(pyrazin-2-yl)picolinamide]", "IC50": 45},
      {"smiles": "Cc1ncccc1-c1ccc(C(=O)NCc2ccc(-c3ccnc(C(F)(F)F)c3)nc2)nc1", "note": "[compound 67, 5-(2-methylpyridin-3-yl)-N-({6-[2-(trifluoromethyl)pyridin-4-yl]pyridin-3-yl}methyl)pyridine-2-carboxamide]", "IC50": 6},
      {"smiles": "O=C(NCc1ccc(N2CCS(=O)(=O)CC2)nc1)c1ccc(-c2cnccn2)cn1", "note": "[compound 68, N-((6-(1,1-dioxidothiomorpholino)pyridin-3-yl)methyl)-5-(pyrazin-2-yl)picolinamide]", "IC50": 38},
      {"smiles": "O=C(NCc1ccc(N2CCS(=O)(=O)CC2)nc1)c1ccc(-c2cnccn2)nc1", "note": "[compound 69, N-((6-(1,1-dioxidothiomorpholino)pyridin-3-yl)methyl)-6-(pyrazin-2-yl)nicotinamide]", "IC50": 88},
      {"smiles": "Cc1cc(C(=O)NCc2cnc(-c3ccnc(C(F)(F)F)c3)c(C)c2)ccc1-c1ncccc1C", "note": "[compound 70, 3-methyl-N-({5-methyl-6-[2-(trifluoromethyl)pyridin-4-yl]pyridin-3-yl}methyl)-4-(3-methylpyridin-2-yl)benzamide]", "IC50": 27},
      {"smiles": "O=C(NCc1cnc(-c2ccnnc2)c(F)c1)c1ccc(-c2cnccn2)cn1", "note": "[compound 71, N-{[5-fluoro-6-(pyridazin-4-yl)pyridin-3-yl]methyl}-5-(pyrazin-2-yl)pyridine-2-carboxamide]", "IC50": 2.5},
      {"smiles": "O=C(NCc1ccc(-c2ccnc(C(F)(F)F)c2)nc1)c1ccc(-c2ccc(N3CCCC3=O)nc2)cn1", "note": "[compound 72, 6′-(2-Oxopyrrolidin-1-yl)-N-((2′-(trifluoromethyl)-[2,4′-bipyridin]-5-yl)methyl)-[3,3′-bipyridine]-6-carboxamide]", "IC50": 1.9},
      {"smiles": "Cc1cccnc1-c1ccc(C(=O)NCc2ccc(-c3ccnc(C(F)(F)F)c3)nc2)nc1", "note": "[compound 73, 5-(3-methylpyridin-2-yl)-N-({6-[2-(trifluoromethyl)pyridin-4-yl]pyridin-3-yl}methyl)pyridine-2-carboxamide]", "IC50": 6},
      {"smiles": "Cc1cccnc1-c1ccc(C(=O)NCc2cnc(-c3ccnc(C(F)(F)F)c3)c(C)c2)nc1", "note": "[compound 74, N-({5-methyl-6-[2-(trifluoromethyl)pyridin-4-yl]pyridin-3-yl}methyl)-5-(3-methylpyridin-2-yl)pyridine-2-carboxamide]", "IC50": 32},
      {"smiles": "Cc1cc(-c2ncc(CNC(=O)c3ccc(-c4ncccc4C)cn3)cc2F)ccn1", "note": "[compound 75, N-{[5-fluoro-6-(2-methylpyridin-4-yl)pyridin-3-yl]methyl}-5-(3-methylpyridin-2-yl)pyridine-2-carboxamide]", "IC50": 6.9},
      {"smiles": "Cc1cc(-c2ncc(CNC(=O)c3ccc(-c4cc(F)ccc4C)cn3)cc2F)ccn1", "note": "[compound 76, 5-(5-fluoro-2-methylphenyl)-N-{[5-fluoro-6-(2-methylpyridin-4-yl)pyridin-3-yl]methyl}pyridine-2-carboxamide]", "IC50": 1.2},
      {"smiles": "Cc1ccc(F)cc1-c1ccc(C(=O)NCc2cnc(-c3ccnc(C(F)(F)F)c3)c(C)c2)nc1", "note": "[compound 77, 5-(5-fluoro-2-methylphenyl)-N-({5-methyl-6-[2-(trifluoromethyl)pyridin-4-yl]pyridin-3-yl}methyl)pyridine-2-carboxamide]", "IC50": 6.3},
      {"smiles": "Cc1cc(C(=O)NCc2cnc(-c3ccnc(C(F)(F)F)c3)c(C)c2)ccc1-c1cnccn1", "note": "[compound 78, 3-methyl-N-({5-methyl-6-[2-(trifluoromethyl)pyridin-4-yl]pyridin-3-yl}methyl)-4-(pyrazin-2-yl)benzamide]", "IC50": 13},
      {"smiles": "Cc1cc(C(=O)NCc2cnc(-c3ccnc(C(F)(F)F)c3)c(C)c2)ncc1-c1cnccn1", "note": "[compound 79, 4-methyl-N-({5-methyl-6-[2-(trifluoromethyl)pyridin-4-yl]pyridin-3-yl}methyl)-5-(pyrazin-2-yl)pyridine-2-carboxamide]", "IC50": 982},
      {"smiles": "Cc1cc(-c2ncc(CNC(=O)c3ccc(-c4cc(F)ccc4C)cn3)cc2C)ccn1", "note": "[compound 80, 5-(5-fluoro-2-methylphenyl)-N-{[5-methyl-6-(2-methylpyridin-4-yl)pyridin-3-yl]methyl}pyridine-2-carboxamide]", "IC50": 4.2},
      {"smiles": "Cc1cc(-c2cnc(CNC(=O)c3ccc(-c4cnccn4)cn3)c(C)c2)ccn1", "note": "[compound 81, N-((2′,5-dimethyl-3,4′-bipyridin-6-yl)methyl)-5-(pyrazin-2-yl)picolinamide]", "IC50": 20},
      {"smiles": "Cc1cc(C(=O)NCc2cnc(-c3ccnc(C(F)(F)F)c3)c(C)c2)ncc1-c1cc(F)ccc1C", "note": "[compound 82, 5-(5-fluoro-2-methylphenyl)-4-methyl-N-({5-methyl-6-[2-(trifluoromethyl)pyridin-4-yl]pyridin-3-yl}methyl)pyridine-2-carboxamide]", "IC50": 441},
      {"smiles": "Cc1cc(C(=O)NCc2cnc(-c3ccnc(C(F)(F)F)c3)c(C)c2)ncc1-c1cccc(F)c1", "note": "[compound 83, 5-(3-fluorophenyl)-4-methyl-N-({5-methyl-6-[2-(trifluoromethyl)pyridin-4-yl]pyridin-3-yl}methyl)pyridine-2-carboxamide]", "IC50": 812},
      {"smiles": "CC(=O)N1CCN(c2ccc(C(=O)NCc3cnc(-c4ccnc(C(F)(F)F)c4)c(F)c3)nc2)CC1", "note": "[compound 84, 5-(4-Acetylpiperazin-1-yl)-N-((3-fluoro-2′-(trifluoromethyl)-2,4′-bipyridin-5-yl)methyl)picolinamide]", "IC50": 2.7},
      {"smiles": "O=C(NCc1cnc(-c2ccnc(C(F)(F)F)c2)c(F)c1)c1ccc(-c2cnccn2)cn1", "note": "[compound 85, N-({5-fluoro-6-[2-(trifluoromethyl)pyridin-4-yl]pyridin-3-yl}methyl)-5-(pyrazin-2-yl)pyridine-2-carboxamide]", "IC50": 0.22},
      {"smiles": "Cc1cc(-c2cnc(CNC(=O)c3ccc(-c4cnccn4)cn3)cc2C)ccn1", "note": "[compound 86, N-{[4-methyl-5-(2-methylpyridin-4-yl)pyridin-2-yl]methyl}-5-(pyrazin-2-yl)pyridine-2-carboxamide]", "IC50": 17},
      {"smiles": "Cc1cc(-c2cnccn2)cnc1C(=O)NCc1ccc(-c2ccnc(C(F)(F)F)c2)nc1", "note": "[compound 87, 3-methyl-5-(pyrazin-2-yl)-N-({6-[2-(trifluoromethyl)pyridin-4-yl]pyridin-3-yl}methyl)pyridine-2-carboxamide]", "IC50": 16},
      {"smiles": "Cc1cc(-c2ncc(CNC(=O)c3ccn(-c4cccc(F)c4)c(=O)c3)cc2C)ccn1", "note": "[compound 88, 1-(3-fluorophenyl)-N-{[5-methyl-6-(2-methylpyridin-4-yl)pyridin-3-yl]methyl}-2-oxo-1,2-dihydropyridine-4-carboxamide]", "IC50": 4.4},
      {"smiles": "Cc1cc(-c2ccc(CNC(=O)c3ccn(-c4cccc(F)c4)c(=O)c3)cn2)ccn1", "note": "[compound 89, 1-(3-Fluorophenyl)-N-((2′-methyl-[2,4′-bipyridin]-5-yl)methyl)-2-oxo-1,2-dihydropyridine-4-carboxamide]", "IC50": 12.5},
      {"smiles": "Cc1cc(CNC(=O)c2ccn(-c3cccc(F)c3)c(=O)c2)cnc1-c1ccnc(C(F)(F)F)c1", "note": "[compound 90, 1-(3-fluorophenyl)-N-({5-methyl-6-[2-(trifluoromethyl)pyridin-4-yl]pyridin-3-yl}methyl)-2-oxo-1,2-dihydropyridine-4-carboxamide]", "IC50": 6.6}
    ]}
  ]
}
